Laboratory results taken from patent publication US10265321B2, “Uses of salt-inducible kinase (SIK) inhibitors” (Dana-Farber Cancer Institute, Inc., priority 2014, dated 2019).

Tested on: CD11c+ CX3CR1hi myeloid cells and CD11c+ CX3CR1− DCs from the small intestine
Test: Cytokine production by lamina propria gut myeloid cells
Assay type: cell-based, mouse
Settings: 0.3 μM, 30 min pre-treatment
Procedure: Bone marrow-derived DCs were differentiated from C57BL/6 bone marrow in the presence of GM-CSF-conditioned media. CD11c^+ CX3CR1^hi myeloid cells and CD11c^+ CX3CR1^− DCs were isolated from the small intestine lamina propria of Cx3cr1^eGFP/+ mice (12). Detection of cell-surface Thy1.1 expression on BMDCs from 10BiT reporter mice was conducted as described previously (24). Cell viability was estimated by change in total cellular ATP levels using CellTiterGlo assays (Promega). Preparation of recombinant SIK proteins and IC50 measurements were conducted as described previously (21). Total RNA was extracted using a NucleoSpin 96 RNA isolation kit (Macherey-Nagel) followed by cDNA synthesis and multiplex RT-PCR using a microfluidic dynamic array (Fluidigm). The concentrations of TNF-α, IL-6, IL-10, IL-12p40, IL-1β and RANTES in culture supernatants were detected using a FlexSet Cytometric bead array (BD Biosciences). Alternatively, IL-10 secretion was quantified using ELISA (BD Biosciences) or AlphaLISA (PerkinElmer) assays. NO production was estimated based on nitrate content in culture medium using the Greiss reagent.
After stimulation of cells with microbial ligands, the culture medium was removed, clarified by centrifugation for 10 min at 14,000×g, and the concentration of TNF-α, IL-6, IL-10, IL-12p40, IL-1β and RANTES were measured using FlexSet Cytokine Bead Array (BD Biosciences) according to the manufacturer's instructions. Where indicated, ELISAs were used to detect IL-10 and IL-12p70 (BD Biosciences) according to the manufacturer's instructions. NO production was estimated based on nitrate content in culture medium using the Greiss reagent as described previously (Miletic A V, et al. (2007) Vav proteins control MyD88-dependent oxidative burst. Blood 109(8):3360-3368).
CX3CR1GFP/+ mice were euthanized and intestines cut into 3-4 pieces before inversion onto polyethylene tubes (Becton Dickinson). Intestinal fragments were washed with calcium- and magnesium-free PBS (Lonza), and mucus was removed with 1 mM DTT. […]

## COc1ccc(N(C(=O)Nc2c(C)cccc2C)c2cc(Nc3ccc(N4CCN(C)CC4)cc3)ncn2)c(OC)c1 [HG-9-91-01]
LPS or zymosan 18 hr
  IL-10 production by CD11c+ CX3CR1hi cells: enhanced IL-10 production
Both subsets
  secretion of TNF-α by gut myeloid cell subsets: reduced secretion of TNF-α
Either subset
  production of IL-6 or RANTES by gut myeloid cell subsets: not affected
